Test results as given in patent EP4772523A1, “D-PEPTIDE AND USE THEREOF” (HIROSAKI UNIVERSITY, priority 2023, dated 2025).
*1 amine or outer side, *2 acyl side, *3 side chain or, on linkers, in order; H or OH if unused. Where a SMILES comes first, the peptide text is derived from it. Where no end group is shown, it is not given here. [ ]: non-standard residue; d: D form. The star is where a group is joined. Dolaproine = CO[C@@H]([C@@H]1CCCN1)[C@@H](C)C(=O)O; Hexanoyl(6-maleimido) = O=C1C=CC(=O)N1CCCCCC(=O)*; Dil = CC[C@H](C)[C@H](NC)[C@@H](CC(=O)O)OC; PABC = O=C(OCc1ccc(N[*:1])cc1)[*:2]; X1 = C[C@@H](N*)[C@@H](O)c1ccccc1; Cit = NC(=O)NCCC[C@H](N)C(=O)O; NMeV = CN[C@H](C(=O)O)C(C)C

What was measured:
[1] = State of dissolution in physiological saline at dosing concentration; format: physicochemical; conditions: dosing solutions: ^10BSH 1.25 mg/25 g mouse, ^10BSH-vc-dhp7 8.25 mg/25 g mouse, IF7-^10BSH 10.08 mg/25 g mouse
Description: Thus, it was shown that ^10BSH-vc-dhp7 is more soluble and more flexible in designing the dosage form than IF7-^10BSH.

[2] = target: L-MC16 (L-amino acid MC16 peptide, 15 N-terminal residues of annexin A1) (human or mouse ANXA1 ("such as human ANXA1 or mouse ANXA1")); assay: BLI (Octet K2), biotinylated D-peptide on SSA biosensor, L-MC16 as analyte, 37°C, 1:1 model
[3] = system: human head and neck cancer cells SAS; assay: BNCT in ANXA1-positive head and neck cancer model; format: in vivo, nude mice
Method: (§1) Since it was found in Example 10 that the boron concentration in the tumor tissue by administration of ^10BSH-vc-dhp7 is sufficient for the antitumor effect of neutron capture therapy (BNCT), boron neutron capture therapy by EMCS-^10BSH-vc-dhp7 was attempted in ANXA1-negative human prostate cancer and ANXA 1-positive head and neck cancer models. […] Starting from 24 hours after the administration, the tumor area was irradiated with thermal neutrons at 20 MeV 100 mA for 60 minutes using an accelerator manufactured by Sumitomo Heavy Industries (dose: 1.63 × 10^12/cm^2, average 0.23 Gy). One week after the irradiation, second BNCT treatment was performed.
(§2) Irradiation with thermal neutrons was then performed. One week after the second irradiation, mice of each group were sacrificed. The tumor size and the tumor weight were measured, and pathological analysis of the resected tissue was performed to verify the antitumor effect. The tumor volume was measured from the start of administration until sacrifice by the calculation formula: V = long axis × short axis × short axis/2) (FIGS. 38 and 39).

[4] = system: PC3, SAS, and MG-63 cells; assay: Uptake of ^10BSH in PC3, SAS and MG-63 cells by immunofluorescent staining; format: cell-based, human; conditions: compared with non-addition group
Method: (§3) Uptake of ^10BSH-vc-dhp7 in cancer cells was examined. 330 µg of ^10BSH-vc-dhp7, 403.6 µg of […](EMCS-^10BSH)RR (IF7-^10BSH (a compound described in WO2019244954)) (SEQ ID NO: 40 ([…])), or 50 µg of ^10BSH was added to PC3-PSMA+ and PC3-PSMA- cells seeded in a 3.5 cm culture dish (ib81156) manufactured by ibidi. 24 hours later, the cells were washed with PBS three times and then fixed with 4% PFA. Each peptide-boron compound was prepared to have a boron concentration that allows 50 µg of ^10BSH to be finally added. After blocking with 3% BSA BD PhosFlow perm/wash buffer I (BD557885), 3% BSA BD PhosFlow perm/wash buffer I containing 1 µg/ml of the rabbit anti-^10BSH polyclonal antibody #52 was reacted at room temperature for one hour with ^10BSH taken up into the cells. After washing with PBS three times, it was reacted at room temperature for one hour with an APC-labeled anti-mouse IgG antibody (diluted 1000-fold) to detect the rabbit anti-^10BSH polyclonal antibody, and washed with PBS three times. Then, intracellular uptake of […], IF7-^10BSH, or ^10BSH in each cancer cell was examined by a fluorescence microscope (Keyence BZ9000) (FIGS. 27 and 28).

[5] = system: PC3-PSMA+ and PC3-PSMA- cells; assay: Uptake of ^10BSH in PC3 cells by immunofluorescent staining (Val-Cit conjugate); format: cell-based, human
Method: as §3

[6] = system: human prostate cancer cells PC3-PSMA-/ANXA1-; assay: BNCT in ANXA1-negative prostate cancer model; format: in vivo, nude mice; conditions: ^10BSH 50 mg/kg or conjugate 330 mg/kg intraperitoneal, two irradiations
Method: as §1, §2

[7] = system: human head and neck cancer cells SAS and human osteosarcoma cancer cells MG-63; conditions: mouse, in vivo
[8] = system: PC3-PSMA-/ANXA1- and PC3-PSMA+/ANXA1+; conditions: mouse, in vivo, ip, 28.7 mg/kg
Description: Further, variation in accumulation depending on the tumor size was examined. […] Tumor accumulation was examined in the same manner as above (FIG. 22).

[9] = system: mouse bladder cancer cells MBT2; assay: Boron neutron capture therapy (BNCT) in mouse bladder cancer model; format: in vivo, C3H/HeN mice
Method: Since it was found in Example 6 that ^10BSH-dhp7 is taken up into Anxa1-positive cancer cells, boron neutron capture therapy by ^10BSH-dhp7 was attempted in a mouse bladder cancer model.
Starting from 48 hours after the administration, the tumor area was irradiated with thermal neutrons at 20 MeV 100 mA for 60 minutes using an accelerator manufactured by Sumitomo Heavy Industries (dose: 1.63 × 10^12/cm^2, average 0.23 Gy). One week after the irradiation, second BNCT treatment was performed. 24 hours prior to irradiation with thermal neutrons, 20 mg/kg (0.4 mg/20 g mouse) of ^10BSH-dhp7 was intraperitoneally administered. Irradiation with thermal neutrons was then performed. One week after the second irradiation, mice of each group were sacrificed. The tumor size and the tumor weight were measured, and pathological analysis of the resected tissue was performed to verify the antitumor effect. The tumor volume was measured from the start of administration until sacrifice by the calculation formula: V = long axis × short axis × short axis/2) (FIG. 17).

MBT2 and PC3-PSMA+ cells = assay: Uptake of ^10BSH in cancer cells by immunofluorescent staining with anti-^10BSH antibody; format: cell-based; conditions: 50 µg added, 24 hours; compared with ^10BSH
Method: Uptake of ^10BSH-dhp7 in cancer cells was examined. 50 µg of ^10BSH-dhp7 or ^10BSH was added to MBT2 and PC3-PSMA+ cells seeded in a 3.5 cm culture dish (ib81156) manufactured by ibidi. 24 hours later, the cells were washed with PBS three times and then fixed with 4% PFA. After blocking with 3% BSA BD PhosFlow perm/wash buffer I (BD557885), 3% BSA BD PhosFlow perm/wash buffer I containing 1 µg/ml of the rabbit anti-^10BSH polyclonal antibody #52 was reacted at room temperature for one hour with ^10BSH taken up into the cells. After washing with PBS three times, it was reacted at room temperature for one hour with an APC-labeled anti-mouse IgG antibody (diluted 1000-fold) to detect the rabbit anti-^10BSH polyclonal antibody, and washed with PBS three times. Then, intracellular uptake of ^10BSH-dhp7 or ^10BSH in each cancer cell was examined by a fluorescence microscope (Keyence BZ9000) (FIG. 16).

[10] = system: PSMA-negative/ANXA1-negative human prostate cancer cells PC3 and PSMA-positive/ANXA1-positive PC3 cells; assay: Anticancer treatment in back subcutaneous PC3 tumor model; format: in vivo, nude mice; conditions: 0.919 mg/kg, post-treatment
Method: 1 × 10^6 PSMA-negative/ANXA1-negative human prostate cancer cells PC3 were inoculated into the left back of nude mice, and 1 × 10^6 PSMA-positive/ANXA1-positive PC3 cells were inoculated into the right back of the nude mice. […] As control, 0.919 mg/kg (22.975 ng vcMMAE/25 g mouse) of vcMMAE alone (molecular weight: 1316.6) was administered. The tumor size was monitored by measuring the average radiance (photon/sec/cm^2/sr) of the luciferase-expressing tumor after injection of luciferin (150 mg/mouse) using an IVIS system. After three courses of administration, the tumor size, body weight, pathological test, blood biochemical test, and blood cell count test values were evaluated (FIG. 41).

[11] = system: PC3-Luc2-PSMA+/ANXA1-positive cells; assay: Cytotoxicity (Cell Counting Kit-8) to ANXA1-positive PC3 cells; format: cell-based, human
Method: The cell viability was analyzed by Cell Counting Kit-8 (Dojindo), and the IC50 value was calculated (FIG. 40).

[12] = system: PSMA-negative/ANXA1-negative human prostate cancer cells PC3 and PSMA-positive/ANXA1-positive PC3 cells; assay: Anticancer treatment in femur subcutaneous PC3 tumor model; format: in vivo, nude mice; conditions: vcMMAE-dhp7 1.25 mg/kg or vcMMAE 0.919 mg/kg intraperitoneal every four days, three courses; femur tumors
Method: As control, 0.919 mg/kg (22.975 ng vcMMAE/25 g mouse) of vcMMAE alone (molecular weight: 1316.6) was administered. The tumor size was monitored by measuring the average radiance (photon/sec/cm^2/sr) of the luciferase-expressing tumor after injection of luciferin (150 mg/mouse using an IVIS system. After three courses of administration, the average radiance of the luciferase-expressing tumor and the body weight were evaluated (FIG. 46).

[13] = system: PSMA-positive/ANXA1-positive PC3 cells; assay: Anticancer treatment in femur PC3 tumor model at same vcMMAE dose; format: in vivo, mice; conditions: vcMMAE-dhp7 2.14 mg/kg or vcMMAE 1.25 mg/kg intraperitoneal every four days, four courses
Method: 2 × 10^6 PSMA-positive/ANXA1-positive PC3 cells were inoculated into the right femur. […] As control, 1.25 mg/kg (31.25 ng vcMMAE/25 g mouse) of vcMMAE alone (molecular weight: 1316.6) was administered. The tumor size was monitored by measuring the average radiance (photon/sec/cm^2/sr) of the luciferase-expressing tumor after injection of luciferin (150 mg/mouse using an IVIS system. After four courses of administration, the average radiance of the luciferase-expressing tumor and the body weight were evaluated (FIG. 48).

## IFLLWQRK(EMCS-^10BSH)RR (EMCS-10BSH boron cluster; C-terminal RR) [IF7-^10BSH, reference compound]
[1]
  state in physiological saline: poorly soluble and cloudy

## biotin-dhp7 (D-amino acid peptide hpnevrs modified with biotin at the N-terminus)
[2]
  Kd: 480 nM

## biotin-dqy7 (D-amino acid peptide qyatnlk modified with biotin at the N-terminus)
[2]
  Kd: 990 nM

## EMCS-^10BSH-val-cit-hpnevrs ([dH][dP][dN][dE][dV][dR][dS]; not fully specified (N-terminus); printed as EMCS-^10BSH-val-cit-hpnevrs) [^10BSH-vc-dhp7]
[3]; ANXA1-positive head and neck cancer model, 330 mg/kg intraperitoneal, starting immediately after the first BNCT
  tumor growth suppressing effect, BNCT treatment group: tumor growth suppressing effect more remarkable than that in the ^10BSH and BNCT treatment group
[3]; one week after the second irradiation
  tumor volume compared with ^10BSH and BNCT treatment group: reduced tumor volume
[4]
  intracellular intake of ^10BSH: statistically significant intracellular intake of ^10BSH in all cells
[5]; ANXA1-positive PC3 cells, versus IF7-^10BSH and ^10BSH treatment groups
  efficiency of intracellular intake of ^10BSH: statistically significantly higher
[5]; PSMA-negative cells expressing less ANXA1 on the cell surface
  uptake in PSMA-negative cells compared with PSMA-positive cells: took up ^10BSH-vc-dhp7 less than the PSMA-positive cells did
[5]; amount equal to 50 µg of ^10BSH, 24 hours, compared with ^10BSH
  intracellular uptake of ^10BSH (fluorescence): more dotted intracellular fluorescence was observed
[1]
  state in physiological saline: in a dissolved state
[6]
  tumor reduction effect, BNCT treatment group: no tumor reduction effect was observed

## c(MI-Cy7.5)-vc-hpnevrs [Cy7.5-vc-dhp7]
[7]
  start of selective accumulation in the tumor tissue: 60 min
  time of maximum tumor accumulation: 2 to 24 h
  tumor accumulation maintained until: 96 h
[8]
  start of selective accumulation in the tumor tissue: 60 min
  tumor accumulation maintained until: 96 h

## biotin-dst7 (D-amino acid peptide stsrntl modified with biotin at the N-terminus)
[2]
  Kd: 720 nM

## EMCS-^10BSH-hpnevrs (HPNEVRS; not fully specified (some residues, N-terminus); printed as EMCS-^10BSH-hpnevrs) [^10BSH-dhp7]
[9]; 20 mg/kg intraperitoneal, no irradiation
  tumor reduction effect, non-BNCT treatment group: no tumor reduction effect was observed
[9]; 20 mg/kg intraperitoneal, two thermal neutron irradiations, one week after the second irradiation
  tumor reduction effect, BNCT treatment group: tumors almost completely disappeared
[9]; administration and BNCT treatment group
  residual tumors in pathological analysis of resected tissues: no residual tumors in four of eight cases
MBT2 and PC3-PSMA+ cells
  intracellular uptake of ^10BSH (fluorescence): dotted intracellular fluorescence was observed

## CC[C@H](C)[C@@H]([C@@H](CC(=O)N1CCC[C@H]1[C@H](OC)[C@@H](C)C(=O)N[C@H](C)[C@@H](O)c1ccccc1)OC)N(C)C(=O)[C@@H](NC(=O)[C@H](C(C)C)N(C)C(=O)OCc1ccc(NC(=O)[C@H](CCCNC(N)=O)NC(=O)[C@@H](NC(=O)CCCCCN2C(=O)C=CC2=O)C(C)C)cc1)C(C)C [vcMMAE] ({Hexanoyl(6-maleimido)}-V[Cit][PABC][NMeV]V[Dil][Dolaproine]-X1)
[10]
  white blood cell count: reduced
[11]
  in-vitro sensitivity of Anxa1-positive cells relative to ANXA1-negative cells: twice
[12]
  average radiance of luciferase-expressing tumor: tended to increase
[13]
  average radiance of luciferase-expressing tumor: tended to increase
